In patent publication US4812562A, “Cephalosporin derivatives” (Taisho Pharmaceutical Co., Ltd., priority 1985, dated 1989):
≈ marks a conversion by molar mass, not a printed value. Structures can show the parent of a compound that is named as a salt. Where two headings read alike, the source gives them in different places.

How the values were obtained:
[1] = system: Morganella morganii IID 602; test: MIC by agar plate dilution method, Morganella morganii IID 602; assay type: cell-based; conditions: IID602
Procedure: (§1) Subsequently, there were tested the minimal inhibitory concentration (MIC) of the compounds of the present invention against various bacteria and the concentration of the compound in blood after oral administration to rats, and the results are shown.
(§2) The antibacterial activities of the compound of the present invention against various bacteria (inoculum size: 10^6 cells/ml) were tested by the agar plate dilution method, and the results are shown in the following Table 1.

[2] = system: Staphylococcus aureus FDA 209P-JC; test: MIC by agar plate dilution method, Staphylococcus aureus FDA 209P-JC; assay type: cell-based; conditions: FDA209P, inoculum size 10^6 cells/ml
Procedure: as §1, §2

[3] = system: Serratia marcescens IID 618; test: MIC by agar plate dilution method, Serratia marcescens IID 618; assay type: cell-based; conditions: IID618
Procedure: as §1, §2

Bacillus cereus S 1101 = test: MIC by agar plate dilution method, Bacillus cereus S 1101; assay type: cell-based; conditions: S1101
Procedure: as §1, §2

[4] = system: Escherichia coli NIHJ JC-2; test: MIC by agar plate dilution method, Escherichia coli NIHJ JC-2; assay type: cell-based; conditions: NIHJJC2, inoculum size 10^6 cells/ml
Procedure: as §1, §2

[5] = system: Klebsiella pneumoniae T 25; test: MIC by agar plate dilution method, Klebsiella pneumoniae T 25; assay type: cell-based; conditions: T25, inoculum size 10^6 cells/ml
Procedure: as §1, §2

[6] = concentration of the compound in blood after oral administration to rats; assay type: in vivo, Male wister rats; conditions: rat, 50 mg/kg, bioassay (Escherichia coli SC507)
Procedure: Male wister rats (7 weeks old) were administered orally with the test compound, and the change of the concentration of the compound in blood was measured.
Dosage of the test compound: 50 mg/kg
Quantitative method: Bioassy
(test bacterium: Escherichia coli SC507)

[7] = Morganella morganii IID 602, inoculum size 10^6 cells/ml, read-out: MIC
[8] = Serratia marcescens IID 618, inoculum size 10^6 cells/ml, read-out: MIC
[9] = Bacillus cereus S 1101, inoculum size 10^6 cells/ml, read-out: MIC

Row | Structure (SMILES) | MIC [2] [µg/mL] | MIC [1, 7] [µg/mL] | MIC [4] [µg/mL] | MIC [3, 8] [µg/mL] | MIC [5] [µg/mL] | MIC (Bacillus cereus S 1101; [9]) [µg/mL] | concentration at 1 h [6] [ng/mL] | concentration at 2 h [6] [ng/mL] | concentration at 4 h [6] [ng/mL] | MIC ([1]; Morganella morganii) [µg/mL] | MIC ([3]; Serratia marcescens) [µg/mL] | MIC (Bacillus cereus S 1101; Bacillus cereus) [µg/mL]
1 | CC1=C(C(=O)O)N2C(=O)[C@@H](NC(=O)[C@H](N)c3ccccc3)[C@H]2SC1 [YY, Cefalexin, reference compound] | 0.78 (≈ 2.25 µM) |  |  |  |  |  |  |  |  | 200 (≈ 576 µM) | > 400 | ≤ 0.1
2 | Nc1nc(/C(=N/OCC(=O)O)C(=O)N[C@@H]2C(=O)N3C(C(=O)O)=C(SCc4ccccn4)CS[C@H]23)cs1 [E] | 12.5 (≈ 22.7 µM) | ≤ 0.1 | 0.39 (≈ 0.708 µM) | 0.78 (≈ 1.42 µM) | 1.56 (≈ 2.83 µM) | 0.39 (≈ 0.708 µM) |  |  |  |  |  | 
3 | NCCCSC1=C(C(=O)O)N2C(=O)[C@@H](NC(=O)/C(=N\OCC(=O)O)c3csc(N)n3)[C@H]2SC1 [D] | 6.25 (≈ 12.1 µM) | 0.39 (≈ 0.755 µM) | 0.78 (≈ 1.51 µM) | 0.39 (≈ 0.755 µM) | 3.13 (≈ 6.06 µM) | 0.2 (≈ 0.387 µM) | 11900 | 16600 | 15400 |  |  | 
4 | NC(=O)OCCSC1=C(C(=O)O)N2C(=O)[C@@H](NC(=O)/C(=N\OCC(=O)O)c3csc(N)n3)[C@H]2SC1 [G, 7β-{α-(2-aminothiazole-4-yl)-α-[(Z)-carboxymethoxyimino]acetamido}-3-(2-carbamoyloxy)ethylthio-3-cephem-4-carboxylic acid sodium salt] | 12.5 | ≤ 0.1 | 0.39 | 0.78 | 6.25 | 0.2 |  |  |  |  |  | 
5 | NC(=O)CCSC1=C(C(=O)O)N2C(=O)[C@@H](NC(=O)/C(=N\OCC(=O)O)c3csc(N)n3)[C@H]2SC1 [F] | 12.5 (≈ 23.6 µM) | 0.1 (≈ 0.188 µM) | 1.56 (≈ 2.94 µM) | 0.78 (≈ 1.47 µM) | 12.5 (≈ 23.6 µM) | 0.2 (≈ 0.377 µM) |  |  |  |  |  | 

The next lines start with results.

Row | MIC [2] [µg/mL] | MIC [1, 7] [µg/mL] | MIC [4] [µg/mL] | MIC [3, 8] [µg/mL] | MIC [5] [µg/mL] | MIC (Bacillus cereus S 1101; [9]) [µg/mL] | concentration at 1 h [6] [ng/mL] | concentration at 2 h [6] [ng/mL] | concentration at 4 h [6] [ng/mL] | Structure (SMILES) | MIC ([1]; Morganella morganii) [µg/mL] | MIC ([3]; Serratia marcescens) [µg/mL] | MIC (Bacillus cereus S 1101; Bacillus cereus) [µg/mL]
6 | 25 (≈ 48.3 µM) | ≤ 0.1 | 0.78 (≈ 1.51 µM) | 1.56 (≈ 3.01 µM) | 6.25 (≈ 12.1 µM) | 0.39 (≈ 0.754 µM) |  |  |  | COCCSC1=C(C(=O)O)N2C(=O)[C@@H](NC(=O)/C(=N\OCC(=O)O)c3csc(N)n3)[C@H]2SC1 [B] |  |  | 
7 | 6.25 (≈ 12.5 µM) | < 0.1 | 1.56 (≈ 3.13 µM) | 0.78 (≈ 1.56 µM) | 25 (≈ 50.1 µM) | 0.2 (≈ 0.401 µM) | 28700 | 19500 | 4300 | N#CCSC1=C(C(=O)O)N2C(=O)[C@@H](NC(=O)/C(=N\OCC(=O)O)c3csc(N)n3)[C@H]2SC1 [A] |  |  | 
8 | 6.25 (≈ 12.4 µM) | < 0.1 | 1.56 (≈ 3.09 µM) | 1.56 (≈ 3.09 µM) | 25 (≈ 49.5 µM) | 0.2 (≈ 0.396 µM) | 25600 | 9100 | 4000 | Nc1nc(/C(=N/OCC(=O)O)C(=O)N[C@@H]2C(=O)N3C(C(=O)O)=C(SCCF)CS[C@H]23)cs1 [C] |  |  | 
9 | 50 | 0.39 | 1.56 | 1.56 | 25 | 0.78 |  |  |  | CSC1=C(C(=O)O)N2C(=O)[C@@H](NC(=O)/C(=N\OCC(=O)O)c3csc(N)n3)[C@H]2SC1 [XX, 7{(2-aminothiazole-4-yl)-[(Z)carboxy-methoxyimino]acetamido3-methylthio-3cephem-4-carboxylic acid sodium salt, reference compound] |  |  | 
